According to patent US20250345383A1, “INTRANASAL ADMINISTRATION OF POLYSULFIDE” (The General Hospital Corporation, priority 2022, published 2025):

Assays:
Assay type in all cases: in vivo, mouse
[1] = tested on: CCL2, CXCL1, IL-1β, IL-6, TNF-α, Bcl-2, Bcl-XL, SQOR and other sulfide-metabolizing enzymes mRNA; test: mRNA levels in lumbar spinal cords 48 hours after surgery (quantitative real-time PCR); conditions: intranasal GSSSG after SCI
Method: Messenger RNA (mRNA) levels were measured as previously described^15 using lumbar spinal cords at 48 hours after surgery. The mRNA levels of C-C motif chemokine 2 (CCL2), C-X-C motif chemokine ligand 1 (CXCL1), interleukin (IL)-1β, IL-6, tumor necrosis factor (TNF)-α, B-cell lymphoma 2 (Bcl-2), B-cell lymphoma-extra large (Bcl-XL), cystathionine beta synthase, cystathionine gamma lyase, 3-mercaptopyruvate sulfurtransferase, sulfide:quinone oxidoreductase (SQOR), ethylmaronic encephalopathy 1, thiosulfate sulfurtransferase, sulfite oxidase, cysteinyl-tRNA synthetase 1, and cysteinyl-tRNA synthetase 2 were standardized to the level of 18S ribosomal RNA using quantitative real-time polymerase chain reaction (7500 Fast Real-Time PCR System, Thermo Fisher Scientific, Waltham, MA, USA).

[2] = LC-MS/MS of ^34S-labeled GSSSG and sulfane sulfur species in CNS and plasma after intranasal GS^34SSG; conditions: after intranasal administration
Method: We used LC-MS/MS analysis to measure the amount of ^34S-labeled GSSSG ([^32S2, ^34S]GSSSG) in the CNS and plasma after intranasal administration of GS^34SSG, an isotope of endogenous GSSSG^9,35,36. The ratios of ^34S-labeled sulfane sulfur species ([^32S, ^34S]GSSH, [^32S, ^34S]cysteine hydropersulfide (CysSSH), and [^32S2, ^34S]cysteine trisulfide (CysSSSCys)) to endogenous sulfane sulfur species ([^32S2]GSSH, [^32S2]CysSSH, and […]) were also quantitatively evaluated. At 30 minutes after intranasal administration of 50 mg/kg of GS^34SSG, blood was obtained and four different central nervous tissues were harvested: olfactory bulb and forebrain; brainstem; cervical and thoracic spinal cord, and lumbar spinal cord. A total of 30 mg of each tissue was homogenized in 300 μl of ice-cold methanol solution containing 5 mM β-(4-hydroxyphenyl)ethyl iodoacetamide (HPE-IAM; Santa Cruz Biotechnology, Dallas, TX, USA). Twenty-five μl of plasma was mixed with 75 μl of ice-cold methanol solution containing 5 mM HPE-IAM. Samples were incubated for 20 minutes at 37° C. in the dark. After centrifugation (14,000×g for tissues, 1,870×g for plasma, 10 minutes, 4° C.), the supernatant was separated and diluted with 0.1% formic acid for LC-MS/MS analysis, and the pellet was sonicated to measure the protein concentration by BCA assay. The amount of [^32S2, ^34S]GSSSG was quantified in selective reaction monitoring (SRM) with precursor ion (647.14 m/z), product ion (389.1 m/z), and higher energy collisional dissociation (21 v). The ratios of [^32S, ^34S]GSSH to [^32S2]GSSH, [^32S, ^34S]CysSSH to [^32S2]CysSSH, and [^32S2, ^34S]CysSSSCys to [^32S3]CysSSSCys were calculated from their peak area measured by Dionex UltiMate 3000 RS UPLC-Orbitrap Exploris 480 mass spectrometer (Thermo Fisher Scientific, Waltham, MA, USA). In brief, samples were subjected to the UPLC system with a Hypersil Gold C-18 (100×2.1 mm, 3.0 μm, Thermo Fisher Scientific, Waltham, MA, USA) column and were then eluted by a linear methanol gradient of the mobile phase (0-90%, 15 minutes) in the presence of 0.1% formic acid at a flow rate of 0.2 ml/minute at 40° C. The raw data were analyzed by Compound Discoverer 3.3 software (Thermo Fisher Scientific, Waltham, MA, USA). The molecular weights of these sulfane sulfur species combined with HPE-IAM were determined based on previous reports^9,11,37.

[3] = tested on: sulfane sulfur in lumbar spinal cord; test: Relative sulfane sulfur levels in lumbar spinal cords after SCI (SSip-1); conditions: 48 hours after SCI; intranasal GSSSG; sham set to 1.00±0.30, vehicle alone 0.56±0.13; mean ± SD
Method: Lumbar spinal cords were harvested 48 hours after surgery and snap-frozen in liquid nitrogen. Spinal cords were subsequently homogenized in Hanks' balanced salt solution (HBSS; Thermo Fisher Scientific, Waltham, MA, USA) containing SSip-1 (5 μM), incubated at room temperature in the dark for 20 minutes, and then subjected to centrifugation. SSip-1 was synthesized and provided by the Hanaoka laboratory^38. The fluorescence intensities of supernatants were measured using a microplate reader (SpectraMax M5; Molecular Devices, San Jose, CA, USA) at the wavelength of λex/λem=491 nm/525 nm. The fluorescence intensities were normalized to the weights of the spinal cord.

N[C@@H](CCC(=O)N[C@@H](CSSSC[C@H](NC(=O)CC[C@H](N)C(=O)O)C(=O)NCC(=O)O)C(=O)NCC(=O)O)C(=O)O [GSSSG, glutathione trisulfide]
mRNA encoding SQOR in lumbar spinal cord [1]: decreased the level of mRNA encoding SQOR
mRNA encoding pro-inflammatory cytokines in lumbar spinal cord [1]: attenuated the upregulation
mRNA levels encoding other enzymes that synthesize or metabolize sulfides or persulfides [1]: no effect
mRNA levels of anti-apoptotic genes Bcl-2 and Bcl-XL, vehicle alone vs GSSSG [1]: no significant difference
increase of levels of multiple sulfane sulfur species in the lumbar spinal cord [2]: 10 to 100 fold
relative sulfane sulfur levels in lumbar spinal cord [3]: 1.37±0.50
